# Test results reported in patent US7108996B2, “Method for increasing luminescence assay sensitivity” (Promega Corporation, priority 2000, dated 2006).
# Like-named read-outs stand apart in the source and are kept apart here.
# How the values were obtained:
# [1] = test system: coelenterazine autoluminescence in Human embryonic kidney cells (293); test: Whole cell assay: reduction of coelenterazine autoluminescence in the presence of living cells; type: cell-based
# Protocol: (§1) To determine the effect of organic compounds on cell viability and to determine the ability of such compounds to reduce autoluminescence in the presence of living cells, the following experiment was performed. Human embryonic kidney cells (293, ATCC, Rockville, Md.) were used to generate a cell line that stably expresses the firefly luciferase (Luc+) gene. This stable cell line was made using the pCl-neo vector (Promega Corporation, Madison Wis., USA) and inserting the Luc+ gene between the Xba I and Sal I sites. The stable cell line was prepared using standard methods and the transformed cells were grown in wells of a microtiter plate in the presence of DMEM medium containing 10% FBS and 0.15 mg/ml G418. For experimental purposes, duplicate plates of cells were prepared using 96 well microtiter plates. One plate was used to examine viability, and the other plate was used to examine the effect on autoluminescence.
# To determine the ability of the organic compounds to reduce autoluminescence, the media was removed from the cells and replaced with media containing the compounds at various concentrations and coelenterazine. Since there is no Renilla luciferase enzyme being expressed in these cells, the only luminescence observed is autoluminescence. The level of autoluminescence was compared to controls containing only coelenterazine to identify the effect of the compounds on reducing autoluminescence.
# (§2) Half of the microtiter plate contained no cells. To these wells, the same reagents were added as to the cell counterpart to measure cell-independent luminescence (i.e. background luminescence). The reagents (media with luciferin or coelenterazine, with or without compounds at various concentrations) were prepared as follows:
# b) Reagent to Examine Reduction in Autoluminescence
# Coelenterazine substrate was initially dissolved in Stop & Glob Reagent Solvent (both available from Promega Corporation, Madison Wis., USA) as a 30 mM stock. This coelenterazine stock was used to make DMEM media containing 0.6 mM coelenterazine as the final concentration. DMEM/coelenterazine reagents were made in a similar fashion as the DMEM/luciferin reagents described in a).
# (§3) The cell culture medium was removed from the cells and replaced with medium containing substrate (+/−compound) and luminescence was measured immediately. […] Fold reduction in autoluminescence was calculated by dividing the background-subtracted autoluminescence in minus compound controls by the background-subtracted autoluminescence containing the compounds.
# [2] = test system: Human embryonic kidney cells (293) stably expressing firefly luciferase (Luc+); test: Whole cell assay: firefly luminescence as indicator of cell viability; type: cell-based
# Protocol: as §1
# To examine the effect of the organic compounds in cell viability, the media was removed from the cells and replaced with media containing the substrate for firefly luciferase, beetle luciferin, and the organic compounds at various concentrations. Passive diffusion of luciferin across the cell membrane together with the ATP oxygen and luciferase enzyme already contained within the cell, results in light production. Whereas, in compromised or damaged cells, intracellular ATP concentration is rapidly depleted, decreasing the firefly luminescence. The level of luminescence was compared to controls containing only luciferin to identify the effect of the compounds, if any, on light output as an indicator of cell viability.
# as §2
# a) Reagent to Examine Firefly Luminescence (Cell Viability)
# Luciferin substrate available from Promega Corporation, Madison Wis., USA was initially prepared in 10 mM sodium phosphate buffer, pH 7.4 as a 100 mM stock. This luciferin stock was used to make DMEM solution containing a final concentration of 2 mM luciferin.
# Thiourea and 1-allyl-3-(2-hydroxyethyl)-2-thiourea were dissolved directly in this solution (DMEM/luciferin) to a final concentration of 30 mM. These were subsequently diluted to contain final compound concentrations of 10 mM and 1 mM.
# Another compound 6-aza-thio-thymidine was dissolved in DMSO as a 750 mM stock. The 6-aza-thio-thymidine was subsequently added to the DMEM/luciferin reagent at a final concentration of 30 mM, 10 mM, and 1 mM, while maintaining a final DMSO concentration of 4%. A DMEM/luciferin reagent was used as the control with which to compare the effect of the compound and was also made to contain a final DMSO concentration of 4%.
# Since it is believed that DMSO may help organic molecules permeat cell membranes, an additional control was included that consisted of thiourea (10 mM) reconstituted in DMSO (4%).
# as §3
# Renilla luciferase [3] = molecular target: T1, Renilla luciferase (Renilla reniformis, UniProt P27652)
# Protocol: (§4) The enzymatic luminescence measurement may have an autoluminescence component.
# (§5) Format B Experiments were performed in a reaction volume of 150 μl Matthew's Buffer (referred to herein as MB) as either a standard MB composition or a modified MB composition as described below. As with Format A, reactions with and without Renilla luciferase were carried out to observe the effect of the organic compounds on assay sensitivity.
# (§6) 1× Matthew's buffer standard composition consists of:
# (§7) In order to observe the autoluminescence enhanced only by the detergent, for the majority of the experiments, BSA was replaced with porcine gelatin as the enzyme stabilizer at a final concentration of 0.15 mg/ml or 0.45 mg/ml. Taking all the variants into account the format can be sub-divided in 4 different versions:
# (§8) Reactions were carried out in triplicate by adding each of the 50 μl portions to microtiter plate wells and mixing. The resulting relative light units generated per well was measured immediately using a Dynex MLX Microtiter plate luminometer or a Wallac 1450 MicroBeta Trilux plate luminometer (1 second/well) or alternatively, the plate was incubated at 22° C. and read after 5 minutes in the same fashion.
# (§9) b) effect of the compound on enzymatic luminescence measurement in the presence of the compound when compared to control samples lacking only the compound.
# [4] = Protocol: as §4, §5, §6, §7, §8
# (§10) a) fold-decrease in non-enzymatic autoluminescence measurement in the presence of the compound when compared to the absence of the compound and, […]
# [5] = remark: listed apart in the source
# Protocol: as §4
# (§11) Format A Assays were performed in the presence of Steady Glo® reagent (SG) and Stop & Glo® reagent (S+G), (Promega Corporation, Madison Wis.). A total reaction volume of 150 μl consisted of:
# (§12) 50 μl F-12 (Ham) media+1 mg/ml gelatin (with or without enzyme^1)
# (§13) 50 μl S+G (containing substrate^2)
# (§14) 50 μl SG ^1 Renilla luciferase enzyme was added to F-12 cell culture media containing 1% gelatin, to a concentration of approximately 2.5 ng/50 μl media. Reactions in the absence of Renilla luciferase reveal the effect of the compound on autoluminescence while reactions in the presence of enzyme reveal the effect of the compound on Renilla luciferase-catalyzed luminescence.^2 The S+G reagent was prepared as per manufacturer's instructions, with the exception that for these experiments a S+G solvent three times more concentrated than normal was used to resuspend the S+G substrate.
# (§15) The compound to be tested was re-suspended in either SG or S+G reagent to a final concentration of SG or S+G of (1×). The compound was added so the final concentration in the 150 μl total volume would be that listed in Table 1 and the reagent was diluted to the a final of 50 μl with water. For controls, the SG or S+G reagent was brought up to 50 μl with water or with the solvent used to dissolve the compound of interest. For example, if a compound needed to be dissolved in DMSO (dimethyl sulphoxide), an equal volume of DMSO was added to the control reaction. Unless otherwise indicated, the compounds were first dissolved in water.
# (§16) For each concentration of a particular compound, a mixture containing all of the components in sufficient amounts for four reactions (i.e. 200 μl media, 200 μl SG, 200 μl S+G) was assembled. From this mixture, 150 μl was dispensed into triplicate wells on a 96-well plate. Alternatively, reactions were sometimes assembled in each well of the plate by adding each of the 50 μl portions and mixing. The plate was incubated at 22° C. and after 5 minutes the luminescence was measured using a Dynex plate luminometer (1 second measurement per well).
# as §10
# Renilla luciferase [6] = molecular target: T1, Renilla luciferase; conditions: Format A
# Protocol: as §4, §11, §12, §13, §14, §15, §16, §9
# [7] = 1 mM compound, no additives to media
# [8] = 10 mM compound, no additives to media
# [9] = 30 mM compound, no additives to media
# [10] = 1 mM compound, 4% DMSO in media
# [11] = 10 mM compound, 4% DMSO in media
# [12] = 30 mM compound, 4% DMSO in media
# [13] = 3 mM compound, Format B3 (gelatin, detergent)
# [14] = 3 mM compound, Format B3 with Tween-20
# [15] = 3 mM compound, Format B4 + 10 mM sodium hydrosulfate
# [16] = 100 mM compound, Format B3 (gelatin, detergent)
# [17] = 10 mM compound, Format B4 (gelatin, no detergent)
# [18] = 100 mM compound, Format B4 (gelatin, no detergent)
# [19] = 10 mM compound, Format B3 (gelatin, detergent)
# [20] = 30 mM compound, Format B3 (gelatin, detergent)
# [21] = 30 mM compound, Format B4 (gelatin, no detergent)
# T1 sequence (P27652 whole entry): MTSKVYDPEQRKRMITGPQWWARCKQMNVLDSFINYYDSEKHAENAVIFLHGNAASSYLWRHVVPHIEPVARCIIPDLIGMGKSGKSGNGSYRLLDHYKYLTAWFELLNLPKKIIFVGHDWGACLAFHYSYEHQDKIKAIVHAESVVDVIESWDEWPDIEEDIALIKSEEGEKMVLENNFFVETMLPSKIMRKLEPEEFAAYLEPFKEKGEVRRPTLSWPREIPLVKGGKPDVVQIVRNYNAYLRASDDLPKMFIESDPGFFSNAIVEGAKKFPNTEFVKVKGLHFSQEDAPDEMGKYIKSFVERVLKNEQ
structure (smiles),measurement,setting,value
"C=CCNC(=S)NCCO [1-Allyl-3-(2-hydroxyethyl)-2-thiourea, 1-allyl-3-(2-hydroxyethyl)-2-thiourea]",Fold Decrease in Autoluminescence,[1]; [7],3.5 fold
same,Fold Decrease in Autoluminescence,[1]; [8],12 fold
same,Fold Decrease in Autoluminescence,[1]; [9],35 fold
same,Effects on firefly luminescence,[2]; [7],No
same,Effects on firefly luminescence,[2]; [8],"Yes, decreases"
same,Effects on firefly luminescence,[2]; [9],"Yes, decreases"
Cc1nn([C@H]2C[C@H](O)[C@@H](CO)O2)c(=S)[nH]c1=O [6-aza-thio-thymidine],Fold Decrease in Autoluminescence,[1]; [10],3 fold
same,Fold Decrease in Autoluminescence,[1]; [11],23 fold
same,Fold Decrease in Autoluminescence,[1]; [12],525 fold
same,Effects on firefly luminescence,[2]; [10],No
same,Effects on firefly luminescence,[2]; [11],No
same,Effects on firefly luminescence,[2]; [12],"Yes, decreases"
NC(N)=S [Compound 1],Effect on luminescence,Renilla luciferase [3]; [13],No effect
same,Effect on luminescence,Renilla luciferase [3]; [14],No effect
same,Effect on luminescence,Renilla luciferase [3]; [15],No effect
same,Effect on luminescence,Renilla luciferase [3]; [16],No effect
same,Fold decrease autoluminescence,[4]; [13],120 fold
same,Fold decrease autoluminescence,"[4]; 3 mM compound, Format B3 + 10 mM sodium hydrosulfate",21.6 fold
same,Fold decrease autoluminescence,[4]; [14],100 fold
same,Fold decrease autoluminescence,"[4]; 3 mM compound, Format B3 with Zwittergent",6 fold
same,Fold decrease autoluminescence,[4]; [15],2.6 fold
same,Fold decrease autoluminescence,[4]; [17],2 fold
same,Fold decrease autoluminescence,"[4]; 50 mM compound, Format B3 + 17% DMSO",500 fold
same,Fold decrease autoluminescence,"[4]; 50 mM compound, Format B4 + 17% DMSO",15 fold
same,Fold decrease autoluminescence,[4]; [16],290 fold
same,Fold decrease autoluminescence,[4]; [18],8.5 fold
same,Fold decrease autoluminescence,"[4]; 316 mM compound, Format B2 (BSA, no detergent)",2 fold
same,Fold decrease autoluminescence,"[5]; 33 mM compound, Format A",15 fold
same,Effect on luminescence,Renilla luciferase [6]; 33 mM compound,No effect
NC(N)=[Se] [Compound 2],Effect on luminescence,Renilla luciferase [3]; [19],No effect
same,Fold decrease autoluminescence,[4]; [19],70 fold
same,Fold decrease autoluminescence,"[5]; 10 mM compound, Format A",100 fold
same,Effect on luminescence,Renilla luciferase [6]; 10 mM compound,No effect
CC(N)=S [Compound 3],Fold decrease autoluminescence,"[4]; 33 mM compound, Format B3 (gelatin, detergent)",545 fold
same,Fold decrease autoluminescence,"[4]; 33 mM compound, Format B4 (gelatin, no detergent)",3.4 fold
same,Fold decrease autoluminescence,"[5]; 33 mM compound, Format A",100 fold
C=CCNC(=S)NCCO [Compound 4],Fold decrease autoluminescence,[4]; [20],500 fold
same,Fold decrease autoluminescence,[4]; [21],3.9 fold
same,Fold decrease autoluminescence,"[5]; 10 mM compound, Format A",3 fold
same,Effect on luminescence,Renilla luciferase [6]; 10 mM compound,No effect
S=C(Nc1ccccc1)Nc1cscn1 [Compound 5],Fold decrease autoluminescence,"[5]; 10 mM compound, Format A",115 fold
Cc1c[nH]c(=S)[nH]c1=O [Compound 6],Fold decrease autoluminescence,"[4]; 32 mM compound, Format B3 + 33% DMSO",660 fold
same,Fold decrease autoluminescence,"[4]; 32 mM compound, Format B4 + 33% DMSO",120 fold
same,Fold decrease autoluminescence,"[5]; 32 mM compound, Format A + 17% DMSO",65 fold
CON=C(C(=O)O)c1csc(N)n1 [Compound 7],Fold decrease autoluminescence,[4]; [20],7 fold
same,Fold decrease autoluminescence,[4]; [21],6.2 fold
NCCS [Compound 8],Effect on luminescence,Renilla luciferase [3]; [20],No effect
same,Fold decrease autoluminescence,[4]; [20],20 fold
same,Fold decrease autoluminescence,[4]; [21],3.5 fold
same,Fold decrease autoluminescence,"[5]; 100 mM compound, Format A",6 fold
same,Effect on luminescence,Renilla luciferase [6]; 100 mM compound,No effect
OC(CS)CC(O)CS (stereo not shown) [Compound 9],Effect on luminescence,Renilla luciferase [3]; [21],No effect
same,Fold decrease autoluminescence,[4]; [20],13 fold
same,Fold decrease autoluminescence,[4]; [21],2.5 fold
same,Fold decrease autoluminescence,[4]; [18],3 fold
CC(=O)NC(CS)C(=O)O (stereo not shown) [Compound 11],Effect on luminescence,Renilla luciferase [3]; [20],No effect
same,Fold decrease autoluminescence,[4]; [20],2 fold
same,Fold decrease autoluminescence,[4]; [21],2.3 fold
same,Fold decrease autoluminescence,[4]; [18],3.7 fold
N#C[S-].[K+] [K SCN],Effect on luminescence,Renilla luciferase [3]; [19],No effect
same,Fold decrease autoluminescence,[4]; [19],55 fold
same,Fold decrease autoluminescence,[4]; [17],1.7 fold
NC(N)=S [thiourea],Fold Decrease in Autoluminescence,[1]; [7],3.4 fold
same,Fold Decrease in Autoluminescence,[1]; [11],12 fold
same,Fold Decrease in Autoluminescence,[1]; [8],16 fold
same,Fold Decrease in Autoluminescence,[1]; [9],40 fold
same,Effects on firefly luminescence,[2]; [7],No
same,Effects on firefly luminescence,[2]; [11],No
same,Effects on firefly luminescence,[2]; [8],No
same,Effects on firefly luminescence,[2]; [9],"Yes, decreases"
